Assay in all cases: NCI tumour cell line growth inhibition, 48 h
Assay [1] relates to HOP-92 NSCLC.
The test system of assay [2] is IGROV1 ovarian.
The test system of assay [3] is K-562 leukemia.
Assay [4] deals with M14 melanoma.
In assay [5] the test system is RPMI-8226 leukemia.
Assay [6] has as its system SF-268 CNS.
Assay [7] deals with SF-295 CNS.
In assay [8] the test system is SF-539 CNS.
Assay [9] deals with SN12C renal.
Assay [10] relates to SNB-19 CNS.
Assay [11] has as its system SR leukemia.

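Step 1: Grow cells in 96-well plates. Step 2: Expose to compound for 48 hours at 5 concentrations. Step 3: Interpolate endpoints linearly; if unreached, use highest concentration. TGI: total growth inhibition.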

Regarding `CCN(CC)CCNC(=O)c1cn2c(ccc3sc4ccccc4c(=O)c32)n1`, the TGI in [1] was 24.6 µM; in assay [2] it was 21.3 µM; in assay [3], 36.8 µM; in assay [4], 29 µM; in assay [5] it was 29 µM; in assay [6] it was 24.8 µM. The TGI in [7] was 23.9 µM; in assay [8], 24.9 µM; in assay [9] it was 23.7 µM; in [10], 27.5 µM; in assay [11] it was 26.6 µM.

Turning to `O=c1c(=O)c2c(Br)sc(Br)c2c1=O`, the TGI in assay [1] was 33 µM; in assay [2], 34.7 µM; in assay [3], 51 µM; in [4], 34.3 µM; in assay [5], 45.9 µM; in assay [6], over 100 µM. Besides, the TGI was over 100 µM in assay [7]; 35.3 µM in assay [8]; 31.6 µM in assay [9]; over 100 µM in assay [10]; 44.2 µM in assay [11].

As for `O=C1CC(c2cccc(Br)c2)n2cccc21` (configuration not stated), the TGI in [1], in assay [2], in assay [3], in assay [4], in assay [5] and in assay [6] was over 100 µM each time. For the same compound, the TGI in [7], in [8], in assay [9], in assay [10] and in assay [11] was over 100 µM each time.

On to `CC1=C(C(=O)c2ccccc2)C23C(=O)N(c4ccccc4)C(=O)C2=C(O)C=CC3(O)N1` (configuration not stated), for which the TGI is 60 µM in assay [1]; 51.9 µM in assay [2]; 75.1 µM in assay [3]; over 100 µM in [4]; over 100 µM in assay [5]; over 100 µM in assay [6]. Besides, the TGI in assay [7] was over 100 µM; in assay [8], over 100 µM; in assay [9], over 100 µM; in assay [10], over 100 µM; in [11], 46.3 µM.

`Cc1ccc(/C(O)=C/c2nc3ccccc3s/c2=N/CS(=O)(=O)c2ccc(C)cc2)cc1`: the TGI in assay [1], in assay [2], in assay [3], in assay [4], in [5] and in assay [6] was over 10 µM each time. Moreover, the TGI in assay [7], in assay [8], in assay [9], in [10] and in assay [11] was over 10 µM throughout.

Regarding `Cc1cc(S(=O)(=O)Nc2nc(N)nc(N(C)C)n2)c(SCC(=O)O)cc1Cl`, the TGI in [1], in [2], in assay [3], in [4], in assay [5] and in [6] was over 10 µM throughout. For the same compound, the TGI in assay [7], in [8], in assay [9], in [10] and in assay [11] was over 10 µM throughout.

For `O=C(Cc1ccccc1)Nn1c(-c2ccccc2)nc2ccccc2c1=O`, the TGI in [1], in assay [2], in assay [3], in assay [4], in assay [5] and in assay [6] was over 100 µM in each case. Also, the TGI in [7], in assay [8], in [9], in [10] and in [11] was over 100 µM throughout.

As to `C=C1C(=O)O[C@@H]2C[C@]3(C)CC[C@]4(C)[C@H](CC[C@@H]5[C@@]6(C)CCC(=O)C(C)(C)[C@@H]6CC[C@]54C)[C@H]3[C@H]12`, the TGI in assay [1] was determined as 26.2 µM; in assay [2] it was 39.2 µM; in assay [3] it was 16.7 µM; in [4], 31.3 µM; in assay [5] it was 5.8 µM; in [6], 46.1 µM. Besides, the TGI is 33.6 µM in [7]; 38.2 µM in assay [8]; 36.4 µM in assay [9]; over 60.6 µM in assay [10]; 36.5 µM in assay [11].

For `CCOP(=O)(OCC)C(C#N)Cc1ccco1` (configuration not stated), the TGI in assay [1], in [2], in assay [3], in [4], in [5] and in assay [6] was over 10 µM each time. Further, the TGI in assay [7], in assay [8], in assay [9], in assay [10] and in assay [11] was over 10 µM each time.

As to `O=C(N/N=C1/C(=O)c2c3ccccc3cc3cccc1c23)c1ccccc1`, the TGI is over 100 µM in assay [1]; 85.5 µM in [2]; over 100 µM in assay [3]; over 100 µM in assay [4]; over 100 µM in [5]; over 91.9 µM in assay [6]. Also, the TGI in assay [7] was 52.2 µM; in assay [8] it was over 100 µM; in assay [9] it was over 100 µM; in assay [10] it was over 100 µM; in [11] it was over 100 µM.

Consider `COc1c(O)cc2c(c1O)C(=O)/C(=C/c1ccc(O)cc1)CO2`, for which the TGI in assay [1] was over 100 µM; in assay [2] it was 80.8 µM; in assay [3], 95.2 µM; in [4], 61.1 µM; in assay [5], 37.2 µM; in assay [6], over 100 µM. In addition, the TGI was over 100 µM in assay [7]; 48.9 µM in assay [8]; 55.5 µM in assay [9]; over 100 µM in assay [10]; 40.9 µM in assay [11].

As to `CC(C)C(/C=C/c1ccc(Cl)c(Cl)c1)=N\NC(=O)N/N=C(/C=C/c1ccc(Cl)c(Cl)c1)C(C)C`, the TGI in [1], in assay [2], in [3], in [4], in [5] and in [6] was over 100 µM in each case. Moreover, the TGI in assay [7], in assay [8], in assay [9], in assay [10] and in assay [11] was over 100 µM in each case.
